Measurements as given in patent US7196110B2, “N-substituted tricyclic 3-aminopyrazoles as inhibitors for the treatment of cell proliferative disorders” (Janssen Phamaceutica N.V., priority 2002, dated 2007).

Experiments:
[1] = target: T1, PDGF-receptor beta enzyme comprising the tyrosine kinase domain (Homo sapiens, UniProt P09619); assay: Inhibition of PDGF-receptor kinase activity (cell-free, PLC1 peptide, 33P Flashplate); assay type: biochemical; settings: PDGF-R kinase activity; for inhibition at 10 µM: compound at 10 uM, read-out: Percent Inhibition @ 10 uM; for IC50: read-out: IC50
T1 construct: from amino acid 545 to 1106 of GenBank Access NO: AAA36427
T1 sequence (P09619 545-1106): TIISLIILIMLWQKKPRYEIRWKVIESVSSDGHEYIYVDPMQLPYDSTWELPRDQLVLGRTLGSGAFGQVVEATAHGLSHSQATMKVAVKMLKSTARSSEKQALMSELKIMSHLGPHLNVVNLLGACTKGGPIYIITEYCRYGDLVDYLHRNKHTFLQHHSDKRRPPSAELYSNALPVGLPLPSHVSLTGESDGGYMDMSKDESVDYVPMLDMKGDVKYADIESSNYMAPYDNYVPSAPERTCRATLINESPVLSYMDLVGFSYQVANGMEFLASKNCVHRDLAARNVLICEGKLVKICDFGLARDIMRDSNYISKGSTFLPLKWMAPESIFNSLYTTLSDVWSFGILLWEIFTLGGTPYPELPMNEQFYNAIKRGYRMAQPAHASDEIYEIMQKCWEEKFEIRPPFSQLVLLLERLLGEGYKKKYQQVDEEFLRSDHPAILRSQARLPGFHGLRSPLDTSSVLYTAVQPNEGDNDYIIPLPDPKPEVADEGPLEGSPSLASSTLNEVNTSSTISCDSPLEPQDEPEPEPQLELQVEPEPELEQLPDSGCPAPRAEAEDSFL
In short: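 Recombinant kinase domain (aa 545–1106) phosphorylated a biotinylated PLC1 peptide with 5 μM ATP plus 33P-γ-ATP, in Tris pH 8, MgCl2, Na3VO4 and 1 mM DTT, for 60 min at 30 °C. Retained 33P was counted after washing. IC50 is the concentration halving activity versus no-inhibitor reactions.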

[2] = target: c-Abl kinase (Abelson murine leukemia virus, UniProt P00521); assay: Inhibition of c-Abl kinase activity (cell-free, Abl peptide substrate, 33P Flashplate); assay type: biochemical; settings: IC50 for the c-Abl kinase activity
Sequence of c-Abl kinase (P00521 115-385): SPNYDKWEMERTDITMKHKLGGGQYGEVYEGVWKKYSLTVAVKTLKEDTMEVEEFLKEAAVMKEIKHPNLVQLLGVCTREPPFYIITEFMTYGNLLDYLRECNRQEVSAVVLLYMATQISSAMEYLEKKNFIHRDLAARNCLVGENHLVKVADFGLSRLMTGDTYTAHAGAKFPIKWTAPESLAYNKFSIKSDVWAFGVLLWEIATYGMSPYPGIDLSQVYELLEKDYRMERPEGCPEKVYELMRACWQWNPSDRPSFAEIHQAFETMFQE
Protocol: The inhibitory activity of compounds within the scope of the invention on c-Abl kinase activity was tested according to the following procedure.
• 1. 10× Kinase Buffer [500 mM Tris-HCl pH=8, 100 mM MgCl2, 1 mM Na3VO4] • 2. 10 mM DTT [final concentration 1 mM] • 3. 10 mM ATP [final concentration 5 μM] (Gibco, Cat No:18330-019, Carlsbad, Calif.) • 4. ^33P-γ-ATP [NEG-602H; 2000–3000 Ci/mmol], 2 μCuries per well at 10 μCi/μl (0.2 μl/well) • 5. Abl enzyme (New England Biolabs, Cat No. P6050L, Beverly, Mass.) at 100 Units/μl use 10 Units/well (0.1 μl/well) • 6. Enzyme Dilution Buffer [50 mM Tris-HCl pH=8.0, 0.1% BSA] • 7. Wash/Stop Buffer [PBS+100 mM EDTA] • 8. NEN Streptavidin Flashplates (New England Nuclear, Cat No. SMP-103, Boston, Mass.). • 9. Abl Peptide Substrate (Biotin-[…]-amide) at 1 mM in 50 mM Tris-HCL pH=8.0. (Use at 1.0 μM). Procedure
Reagents were first mixed according to the following regimen:
The above reaction mixture was dispensed into each well of a Flashplate at 70 μl/well. To test the effect of a compound on Abl kinase activity, the test compound either in a fixed concentration or in serially diluted concentrations in 100% DMSO was added to appropriate wells at 1 μl/well.
Enzyme Abl was diluted in enzyme dilution buffer as following:
The kinase reaction was started by adding 30 μl of diluted Abl enzyme solution to each well on the Flashplate containing hot ATP (2 μCi/well) and Abl peptide substrate (at 1 μM final conc.), except wells of column 12 rows E and F, which were used to calculate the plate background. The Flashplate was swirled to mix and was incubated at 30° C. for 60 minutes. Then, the reaction mixture was discarded and the Flashplate was washed 3 times each with 200 μL Wash/Stop Buffer. Subsequently, each well on the Flashplate was filled with 200 μl of Wash/Stop buffer. The amount of ^33P retained in each well was measured using a Packard TopCount after the plate was sealed with a transparent plate sealer.
In order to test the potency of inhibition of present compounds, an IC50 for an individual compound was measured using the above procedure. As used herein, the IC50 for c-Abl kinase activity refers to the concentration of an inhibitor at which the activity of c-Abl kinase is reduced by one-half as compared with reactions containing no inhibitor.

Row | SMILES | inhibition at 10 µM [1] [%] | IC50 [1] [nM] | IC50 [2] [nM]
1 | OCC(O)COc1cccc2c1Cc1c-2n[nH]c1Nc1cccc(F)c1 (stereo not drawn) [Compound 469, 3-[3-(3-Fluoro-phenylamino)-2,4-dihydro-indeno[1,2-c]pyrazol-5-yloxy]-propane-1,2-diol] | 96 | 160 | 27
2 | COc1cccc(Nc2[nH]nc3c2Cc2cc(OCC(O)CO)c(OC)cc2-3)c1 (stereo not drawn) [Compound 260, 3-[7-Methoxy-3-(3-methoxy-phenylamino)-2,4-dihydro-indeno[1,2-c]pyrazol-6-yloxy]-propane-1,2-diol] | 91 | 1.5 | 13
3 | OCCCOc1cc2c(cc1OCCCO)-c1n[nH]c(Nc3cccc(Cl)c3)c1C2 [Compound 373, 3-[3-(3-Chloro-phenylamino)-7-(3-hydroxy-propoxy)-2,4-dihydro-indeno[1,2-c]pyrazol-6-yloxy]-propan-1-ol] | 100 | 3.77 | 10
4 | COc1cc(Nc2[nH]nc3c2Cc2cc(OC)c(OC)cc2-3)cc(OC)c1 [Compound 41, (6,7-Dimethoxy-2,4-dihydro-indeno[1,2-c]pyrazol-3-yl)-(3,5-dimethoxy-phenyl)-amine] | 83 | 33.6 | 78
5 | COc1cc2c(cc1OCCCO)Cc1c-2n[nH]c1NCc1ccccc1Cl [Compound 385, 3-[3-(2-Chloro-benzylamino)-7-methoxy-2,4-dihydro-indeno[1,2-c]pyrazol-6-yloxy]-propan-1-ol] | 98.5 | 4.07 | 12
6 | CCOc1cccc(Nc2[nH]nc3c2Cc2cc(OCCCO)c(OCCCO)cc2-3)c1 [Compound 401, 3-[3-(3-Ethoxy-phenylamino)-7-(3-hydroxy-propoxy)-2,4-dihydro-indeno[1,2-c]pyrazol-6-yloxy]-propan-1-ol] | 98.5 | 22 | 14
7 | COC(=O)c1cccc(Nc2[nH]nc3c2Cc2cc(OCCCN4CCOCC4)c(OC)cc2-3)c1 [Compound 133, 3-[7-Methoxy-6-(3-morpholin-4-yl-propoxy)-2,4-dihydro-indeno[1,2-c]pyrazol-3-ylamino]-benzoic acid methyl ester] | 53 | 37.9 | 498
8 | CCOc1cccc(Nc2[nH]nc3c2Cc2cc(OCCCO)c(OC)cc2-3)c1 [Compound 376, 3-[3-(3-Ethoxy-phenylamino)-7-methoxy-2,4-dihydro-indeno[1,2-c]pyrazol-6-yloxy]-propan-1-ol] | 100 | 9.1 | 60
9 | COc1cc2c(cc1F)Cc1c-2n[nH]c1Nc1ccc(F)cc1 [Compound 361, (6-Fluoro-7-methoxy-2,4-dihydro-indeno[1,2-c]pyrazol-3-yl)-(4-fluoro-phenyl)-amine] | 100 | 11.6 | 43
10 | OCCCOc1cc2c(cc1OCCCO)-c1n[nH]c(Nc3cccc(F)c3)c1C2 [Compound 398, 3-[3-(3-Fluoro-phenylamino)-6-(3-hydroxy-propoxy)-2,4-dihydro-indeno[1,2-c]pyrazol-7-yloxy]-propan-1-ol] | 96 | 6.82 | 10
11 | Cc1ccc2c(c1)-c1n[nH]c(Nc3cccc(C(C)O)c3)c1C2 (stereo not drawn) [Compound 310, 1-[3-(7-Methyl-2,4-dihydro-indeno[1,2-c]pyrazol-3-ylamino)-phenyl]-ethanol] | 95.5 | 20.2 | 1470
12 | Fc1ccc(Nc2[nH]nc3c2oc2ccccc23)cc1Cl [Compound 381, (3-Chloro-4-fluoro-phenyl)-(2H-8-oxa-2,3-diaza-cyclopenta[a]inden-1-yl)-amine] | 100 | 54.9 | 1500
13 | COc1cc2c(cc1OC)-c1n[nH]c(Nc3cccc(CO)c3)c1C2 [Compound 36, [3-(6,7-Dimethoxy-2,4-dihydro-indeno[1,2-c]pyrazol-3-ylamino)-phenyl]-methanol] | 85 | 33 | 64
14 | COc1cc2c(cc1OC)C(C)c1c-2n[nH]c1Nc1cccc(F)c1 (stereo not drawn) [Compound 249, (6,7-Dimethoxy-4-methyl-2,4-dihydro-indeno[1,2-c]pyrazol-3-yl)-(3-fluoro-phenyl)-amine] | 96 | 6 | 35
15 | COc1cc(Nc2[nH]nc3c2Cc2cc(F)ccc2-3)cc(OC)c1 [Compound 204, (3,5-Dimethoxy-phenyl)-(6-fluoro-2,4-dihydro-indeno[1,2-c]pyrazol-3-yl)-amine] | 90 | 38 | 165
16 | COc1cccc2c1Cc1c-2n[nH]c1Nc1ccccc1 [Compound 8] | 98 | 54 | 694
17 | COCCCOc1cc2c(cc1OCCCOC)-c1n[nH]c(Nc3cccnc3)c1C2 [Compound 286, [6,7-Bis-(3-methoxy-propoxy)-2,4-dihydro-indeno[1,2-c]pyrazol-3-yl]-pyridin-3-yl-amine] | 95.5 | 16.2 | 2950
18 | COc1cc2c(cc1OC)-c1n[nH]c(Nc3ccc(OCc4ccccc4)cc3)c1C2 [Compound 218, (4-Benzyloxy-phenyl)-(6,7-dimethoxy-2,4-dihydro-indeno[1,2-c]pyrazol-3-yl)-amine] | 81 | 2010 | 439
19 | Fc1cccc(Nc2[nH]nc3c2oc2ccccc23)c1 [Compound 380, (3-Fluoro-phenyl)-(2H-8-oxa-2,3-diaza-cyclopenta[a]inden-1-yl)-amine] | 99.5 | 15.3 | 327
20 | COc1ccc(OC)c(Nc2[nH]nc3c2Cc2cc(F)ccc2-3)c1 [Compound 203, (2,5-Dimethoxy-phenyl)-(6-fluoro-2,4-dihydro-indeno[1,2-c]pyrazol-3-yl)-amine] | 86 | 16 | 160
21 | COc1cc2c(cc1OCCCN1CCOCC1)Cc1c-2n[nH]c1Nc1ccc(F)c(Cl)c1 [Compound 179, (3-Chloro-4-fluoro-phenyl)-[7-methoxy-6-(3-morpholin-4-yl-propoxy)-2,4-dihydro-indeno[1,2-c]pyrazol-3-yl]-amine] | 92 | 71.2 | 870
22 | CCOC(=O)CC(=O)n1nc(Nc2cccc(F)c2)c2c1-c1cc(OC)c(OC)cc1C2 [Compound 459, 3-[3-(3-Fluoro-phenylamino)-6,7-dimethoxy-4H-indeno[1,2-c]pyrazol-1-yl]-3-oxo-propionic acid ethyl ester] | 100 | 36.5 | 70
23 | COc1cc2c(cc1OCC(O)CN1CCCC1)Cc1c-2n[nH]c1Nc1cccnc1 (stereo not drawn) [Compound 281, 1-[7-Methoxy-3-(pyridin-3-ylamino)-2,4-dihydro-indeno[1,2-c]pyrazol-6-yloxy]-3-pyrrolidin-1-yl-propan-2-ol] | 67 | 2.6 | 1580
24 | COc1cc2c(cc1OC)-c1n[nH]c(Nc3cccc(Br)c3)c1C2 [Compound 44, (3-Bromo-phenyl)-(6,7-dimethoxy-2,4-dihydro-indeno[1,2-c]pyrazol-3-yl)-amine] | 94 | 0.54 | 7
